Measurements published in publication PMC4128710 (Biochemical pharmacology, 2014).
One block for each compound: values may come before it.

What was measured:
A2BAR [1] = target: T1, A2BAR (Homo sapiens, UniProt P29275); assay: cAMP accumulation in HEK293 cells overexpressing the A2BAR; details: HEK293 cells overexpressing A2BAR
T1 sequence (P29275 1-332): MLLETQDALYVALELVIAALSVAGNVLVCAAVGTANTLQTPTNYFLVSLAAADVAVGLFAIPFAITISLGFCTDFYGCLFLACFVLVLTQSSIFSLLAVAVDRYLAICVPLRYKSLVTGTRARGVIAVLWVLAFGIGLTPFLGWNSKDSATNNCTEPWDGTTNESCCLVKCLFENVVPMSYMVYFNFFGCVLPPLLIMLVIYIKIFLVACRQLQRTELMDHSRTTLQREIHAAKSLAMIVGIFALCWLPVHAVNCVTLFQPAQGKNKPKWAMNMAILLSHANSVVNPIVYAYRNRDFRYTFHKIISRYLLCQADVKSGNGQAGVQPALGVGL

A2BAR [2] = target: T1, A2BAR; assay: cAMP accumulation in T24 cells endogenously expressing the A2BAR
A2BAR [3] = target: T1, A2BAR; assay: ERK1/2 phosphorylation in HEK293 cells; details: HEK293 cells, endogenous A2BAR
mouse A2BAR [4] = target: T2, mouse A2BAR (Mus musculus, UniProt Q60614); assay: β-Arrestin2 translocation in PathHunter CHO cells
T2 sequence (Q60614 1-332): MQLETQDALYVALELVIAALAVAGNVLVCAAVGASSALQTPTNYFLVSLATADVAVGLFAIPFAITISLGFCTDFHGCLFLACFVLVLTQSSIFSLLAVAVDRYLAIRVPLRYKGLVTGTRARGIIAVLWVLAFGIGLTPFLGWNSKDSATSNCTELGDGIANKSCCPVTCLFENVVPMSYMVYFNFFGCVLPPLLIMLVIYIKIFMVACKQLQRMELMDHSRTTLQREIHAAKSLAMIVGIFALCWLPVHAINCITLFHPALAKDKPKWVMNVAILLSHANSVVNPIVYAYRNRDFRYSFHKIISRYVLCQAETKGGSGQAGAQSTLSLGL

A2BAR [5] = target: T1, A2BAR; assay: cAMP accumulation in HEK293 cells endogenously expressing the A2BAR; details: HEK293 cells, endogenous A2BAR
A2BAR [6] = target: T1, A2BAR; assay: ERK1/2 phosphorylation in T24 cells; details: T24 cells
A2BAR [7] = target: T1, A2BAR; assay: Intracellular calcium mobilization in HEK293 cells; details: HEK293 cells, endogenous A2BAR
A2BAR [8] = target: T1, A2BAR; assay: ERK1/2 phosphorylation in HEK293 cells overexpressing the A2BAR; details: HEK293 cells overexpressing A2BAR
A2BAR [9] = target: T1, A2BAR; assay: Intracellular calcium mobilization in HEK293 cells overexpressing the A2BAR; details: HEK293 cells overexpressing A2BAR
A2BAR [10] = target: T1, A2BAR; assay: Intracellular calcium mobilization in T24 cells; details: T24 cells
mouse A2BAR [11] = assay: β-Arrestin2 translocation in PathHunter CHO cells; details: β-Arrestin versus cAMP; bias ≫1 disfavors the pathway
A2BAR [12] = assay: cAMP accumulation in COS-7 cells endogenously expressing the A2BAR
A1 and A3 ARs = assay: Inhibition of forskolin-stimulated cAMP accumulation
[13] = PathHunter CHO cells, mouse A2BAR

SMILES: Nc1ncnc2c1ncn2[C@@H]1O[C@H](C(=O)NC2CC2)[C@@H](O)[C@H]1O [CPCA, adenosine-5′-N-cyclopropyluronamide]
Max effect cAMP (% of effect of NECA) (A2BAR [1]): 98.9 ±6.6%
EC50 (A2BAR [1]; read-out: EC50 cAMP): 32.8 ± 4.2 nM
Max effect cAMP (% of effect of NECA) (A2BAR [2]; T24 cells, NECA = 100%): 98.5 ±1.9%
EC50 (A2BAR [2]; read-out: EC50 cAMP, T24 cells): 177 ± 67 nM
Max effect ERK1/2 (% of effect of NECA) (A2BAR [3]): 99.3 ±2.4%
EC50 (A2BAR [3]; read-out: EC50 ERK1/2): 1030 ± 230 nM
Max effect β-arrestin (% of effect of NECA) (mouse A2BAR [4]; [13]): 109 ±9%
EC50 (mouse A2BAR [4]; read-out: EC50 β-arrestin, PathHunter CHO cells, mouse A2BAR): 5060 ± 1410 nM
Max effect cAMP (% of effect of NECA) (A2BAR [5]): 102 ±9%
EC50 (A2BAR [5]; read-out: EC50 cAMP): 267 ± 32 nM
ERK1/2 stimulation relative to basal value (A2BAR [6]): ≤ 2 fold
Max effect ERK1/2 (% of effect of NECA) (A2BAR [6]): 101 ±8%
EC50 (A2BAR [6]; read-out: EC50 ERK1/2): 369 ± 32 nM
Max effect Calcium (% of effect of NECA) (A2BAR [7]): 98.7 ±6.6%
EC50 (A2BAR [7]; read-out: EC50 Calcium): 2620 ± 460 nM
Max effect ERK1/2 (% of effect of NECA) (A2BAR [8]): 100 ±6%
EC50 (A2BAR [8]; read-out: EC50 ERK1/2): 1860 ± 240 nM
Max effect Calcium (% of effect of NECA) (A2BAR [9]): 102 ±4%
EC50 (A2BAR [9]; read-out: EC50 Calcium): 1490 ± 360 nM
Max effect Calcium (% of effect of NECA) (A2BAR [10]): 101 ±7%
EC50 (A2BAR [10]; read-out: EC50 Calcium): 1930 ± 680 nM

SMILES: CCNC(=O)[C@H]1O[C@@H](n2cnc3c(N)ncnc32)[C@H](O)[C@@H]1O [NECA, adenosine-5′-N-ethyluronamide]
Bias (mouse A2BAR [11]): 1.00
Max effect β-arrestin (% of effect of NECA) (mouse A2BAR [4]; [13]): 100%
τ (mouse A2BAR [4]; β-Arrestin pathway, operational model, CHO mouse A2BAR): 38.9

SMILES: C[C@H](Cc1ccccc1)Nc1ncnc2c1ncn2[C@@H]1O[C@H](CO)[C@@H](O)[C@H]1O [R-PIA, R-N^6-(phenylisopropyl)adenosine]
Max effect β-arrestin (% of effect of NECA) (mouse A2BAR [4]; [13]): 13.2 ±1.1%

EC50 (A2BAR [2]): 9100 ± 5800 nM
SMILES: Nc1nc(Nc2ccccc2)nc2c1ncn2[C@@H]1O[C@H](CO)[C@@H](O)[C@H]1O [CV1808, 2-phenylaminoadenosine]

EC50 (A2BAR [2]): 2160 ± 350 nM
SMILES: Nc1nc(OCCc2c[nH]c3ccccc23)nc2c1ncn2[C@@H]1O[C@H](CO)[C@@H](O)[C@H]1O [MRS3534, 2-(2-(indol-3-yl)ethyloxy)adenosine]

SMILES: OC[C@H]1O[C@@H](n2cnc3c(NC4CCCC4)ncnc32)[C@H](O)[C@@H]1O [CPA, N^6-cyclopentyladenosine]
inhibition of forskolin-stimulated cAMP accumulation (A1 and A3 ARs): inactive
